{"source": "patent US12240812B2", "about": "“Compound for inhibiting PGE2/EP4 signaling transduction inhibiting, preparation method therefor, and medical uses thereof” (Keythera (Suzhou) Pharmaceuticals Co. Ltd., priority 2019, dated 2025)", "key": {"EMT-6 breast tumor": {"system": "EMT-6 breast tumor", "assay": "Compound 6 and anti-PD-1 antibody alone or in combination on EMT-6 breast tumor in mouse", "assay_type": "in vivo", "protocol": "(§1) Efficacy study on allograft tumor: each 6-week-old female BALB/c mouse was subcutaneously inoculated with 5×10^5 EMT-6 cancer cells. When the tumor reached about 60 to 80 mm^3, the tumor-bearing mice were randomly grouped to the vehicle group or treatment group. When administered alone or in combination, compound 6 was administered orally (p.o.) in a 0.5% MC suspension at a dose of 30 mg/kg, once a day. When administered alone or in combination, anti-PD-1 antibody (Invivomab anti-mouse PD-1 (CD279), Abcam) was administered intraperitoneally at a dose of 20 mg/kg on the first administration, and at a dose of 10 mg/kg on the following administrations once every 5 days. The mice in the vehicle group and PD-1 antibody-administered alone group were orally administered with distilled water every day, and the administration time was the same as that of the compound 6 group. The tumor volume and body weight were recorded 2 to 3 times a week."}, "CT-26 colorectal tumor [1]": {"system": "CT-26 colorectal tumor", "assay": "Compound 6 and anti-PD-1 antibody alone or in combination on CT-26 colorectal tumor in mouse", "assay_type": "in vivo", "protocol": "as §1, with “1×10^6 CT26” for “5×10^5 EMT-6”, “30 or 150” for “30”, “5 mg/kg,” for “20 mg/kg on the first administration, and at a dose of 10 mg/kg on the following administrations”, “4 days, for a total of 3 times (Q4D×3).” for “5 days.”"}, "CT-26 colorectal tumor [2]": {"system": "CT-26 colorectal tumor", "assay": "Inhibitory effect of compound 6 on CT-26 colorectal tumor in mouse", "assay_type": "in vivo", "protocol": "Efficacy study on allograft tumor: each 6-week-old female BALB/c mouse was subcutaneously inoculated with 1×10^6 CT26 cancer cells (National Experimental Cell Resource Sharing Service Platform, Resource Number 3111CCCC). When the tumor reached about 60 to 80 mm^3, the tumor-bearing mice were randomly grouped to the vehicle group or treatment group. Compound 6 was administered orally (p.o.) in a 0.5% MC suspension at a dose of 10, 30 or 150 mg/kg, once a day. The mice in the vehicle group were orally administered with distilled water every day, and the administration time was the same as that of the compound 6 group. The tumor volume and body weight were recorded 2 to 3 times a week."}, "[3]": {"assay": "Clearance assay in liver cells", "assay_type": "in vitro ADME", "conditions": "cryopreserved mouse liver cells (hepatocytes); mouse (ICR/CD-1, male) cryopreserved liver cells, 0-120 min", "protocol": "• Liver cell type: mouse • Product catalog: M00505 • Species: ICR/CD-1 • Sex: male • Source: BioreoclmationIVT Procedures: • 1. Preparation of working solution • a. 10 mM stock solutions of test compound and positive control were prepared in an appropriate solvent (DMSO). • b. 198 μL of 50% acetonitrile/50% water and 2 μL of 10 mM solution were mixed in a separate conical tube to obtain 100 μM test compound and positive control. • 2. Preparation of liver cells • a. The incubation medium and liver cell thawing medium were placed in a 37° C. water bath, and heated for at least 15 minutes before use. • b. A vial of cryopreserved liver cells was transferred from the storage, ensuring that the vial was kept at a low temperature until the thawing process was conducted. The cells were thawed by placing the vial in a 37° C. water bath and gently shaking the vial for 2 minutes. After completion of the thawing, the vial was sprayed with 70% ethanol and transferred to a biological safety cabinet. • c. The liver cells were transferred to a 50 mL conical tube containing the thawing medium by a large-bore pipette tip. The 50 mL conical tube was placed in a centrifuge and centrifuged at 100 g for 10 minutes. After completion of the centrifugation, the thawing medium was sucked out, and the liver cells were resuspended in enough medium to produce 1.5×10^6 cells/mL. • 3. Procedures of stability assay • a. 198 μL of liver cells were pipetted into each well of a 96-well uncoated plate. The plate was placed in an incubator to warm up the liver cells for 10 minutes. • b. 2 μL of 100 μM test compound or positive control was pipetted into each well of the 96-well uncoated plate to start the reaction. The plate was placed into the incubator at the set time point. • c. The contents of the wells were transferred in 25 μL of aliquots at the time points of 0, 15, 30, 60, 90 and 120 minutes. The aliquot was mixed with 6 volumes (150 μL) of acetonitrile containing internal standard IS (100 nM alprazolam, 200 nM caffeine, and 100 nM tolbutamide) to stop the reaction. The sample was vortex-mixed for 5 minutes, and centrifuged at 3220 g for 45 minutes. An aliquot of 100 μL of supernatant was diluted with 100 μL of ultrapure water, and the mixture was used for LC/MS/MS analysis. All incubations were performed in duplicate. • d. Data analysis\nAll calculations were performed using Microsoft Excel. The peak area was determined by the extracted ion chromatogram. The in vitro half-life (t½) of the parent compound was determined by the regression analysis of the compound disappearance percentage versus time curve.\nThe in vitro half-life (t½) was determined by the slope value k: t½=0.693/k\nThe in vitro t½ (in minutes) was converted to in vitro intrinsic clearance (CLint, in μL/min/0.5×10^6 cells) by using the following equation (average of repeated determinations): […]"}, "[4]": {"system": "PGE2/EP4 signal transduction in MCF7 cells", "assay": "Determination of MCF7 cAMP (PGE2-stimulated, HTRF)", "assay_type": "cell-based", "conditions": "Homo sapiens; MCF7 cells, 10 nM PGE2 stimulation, cAMP HTRF; read-out: MCF7 cAMP IC50", "protocol": "• a) MCF7 cells (ATCC, 6000 cells/well/40 μl) were inoculated into a 384-well cell culture plate containing a medium (DMEM containing 10% FBS and 1×PS), and incubated overnight at 37° C. and 5% CO2. • b) The medium was removed, 40 μl/well of serum-free medium was added, and the cells were incubated at 37° C. and 5% CO2 for 5 hours. • c) The medium was replaced with 18 μL/well of HBSS buffer (Hepes 20 mM, 0.1% BSA, 500 μM IBMX). • d) The compound in DMSO was diluted (1/5 dilution, 9+0 dose). • e) 2 μL of the compound in d) was added to 98 μL of HBSS buffer. • f) 1 μL/well of the diluted compound in e) was added to the cells, with a final starting concentration of 1 μM, and the cells were incubated at 37° C. for 1 hour. • g) The cells were stimulated with 1 μL/well of PGE2 (10 mM DMSO stock solution) (final concentration: 10 nM, and DMSO final concentration: 0.2%), and incubated at 37° C. for 30 minutes. • h) After the incubation, 10 μL/well of cAMP-d2 and 10 μL/well of anti-cAMP were added, RT 1 h. • i) HTRF signals (665 nm/615 nm) were read on Envision. Data Analysis: • High control: 1 μM E7046 • Low control: DMSO • Background: 30 μL/well of lysis buffer+10 μL/well of anti-cAMP • Analytical data: original date—background Inhibition %: 100−100×(high control−analytical data)/(high control−low control)"}}, "data": [{"compound": "O=C(NC1(C23CC(C(=O)O)(C2)C3)CC1)c1cccc2ccn(Cc3cc4ccccc4o3)c12", "note": "[Compound 6, 3-(1-(1-(Benzofuran-2-ylmethyl)-1H-indole-7-carboxamido)cyclopropyl)bicyclo[1.1.1]pentane-1-carboxylic acid]", "values": [{"measurement": "effect on the body weight of mouse", "setting": "EMT-6 breast tumor; EMT-6 model, compound 6 alone or in combination with anti-PD-1 antibody, FIG. 6", "value": "no significant effect"}, {"measurement": "effect on the EMT-6 breast tumor in mouse", "setting": "EMT-6 breast tumor; compound 6 30 mg/kg p.o. once a day, alone or in combination with anti-PD-1 antibody (20 mg/kg first, then 10 mg/kg i.p. every 5 days), FIG. 5", "value": "good inhibitory effect"}, {"measurement": "effect on the body weight of mouse", "setting": "CT-26 colorectal tumor [1]; CT-26 model, compound 6 alone or in combination with anti-PD-1 antibody, FIG. 4", "value": "no significant effect"}, {"measurement": "effect on the growth of CT-26 tumor in mouse", "setting": "CT-26 colorectal tumor [1]; compound 6 30 or 150 mg/kg p.o. once a day, alone or in combination with anti-PD-1 antibody 5 mg/kg i.p. Q4Dx3, FIG. 3", "value": "good inhibitory effect"}, {"measurement": "effect on the growth of CT-26 tumor", "setting": "CT-26 colorectal tumor [2]; BALB/c mice, CT26 allograft, administered alone, different doses (compound 6: 10, 30 or 150 mg/kg p.o. once a day), FIG. 1", "value": "significant inhibitory effect"}, {"measurement": "effect on CT-26 tumor growth compared with E7046", "setting": "CT-26 colorectal tumor [2]; BALB/c mice, CT26 allograft, at the same dose, FIG. 1", "value": "significantly better than E7046"}, {"measurement": "effect on the body weight of mouse", "setting": "CT-26 colorectal tumor [2]; CT-26 colorectal cancer model, FIG. 2", "value": "no significant effect"}, {"measurement": "hepatocyte CLint at 1 µM", "setting": "[3]", "value": 2.9, "unit": "µL/min/1e6 cells"}, {"measurement": "IC50", "setting": "[4]", "value": 1.1, "unit": "nM"}]}]}
